These results are taken from patent US20250152675A1, “I-TYPE RECOMBINANT COLLAGEN WITH HIGH TRANSDERMAL ABSORBABILITY, AND USE THEREOF” (XI'AN GIANT BIOGENE TECHNOLOLGY CO., LTD, priority 2022, published 2025).

Residues, ends and D or L forms follow the SMILES beside them.

This series in a line: Transdermal penetration through ex vivo mouse skin in a single-chamber diffusion cell, content by BCA kit. The settings on record: collagen peptide 5 mg/ml in 0.9% NaCl, diffusion area 2.0 cm^2, 37.5° C. It counts as in vitro ADME, Kunming mice. In outline: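 Abdominal skin from Kunming mice (20–22 g), glycerol-treated and stored at −20° C up to 7 days, mounted in a 2.0 cm² diffusion cell with 0.9% NaCl receiver at 37.5° C, 100 rpm. Peptides applied at 5 mg/ml in 0.9% NaCl; permeated protein in receiver measured by BCA after 24 h.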
Turning to `CSCC[C@H](NC(=O)[C@@H](NC(=O)CNC(=O)[C@H](C)NC(=O)[C@H](CCC(N)=O)NC(=O)CNC(=O)[C@H](CCCNC(=N)N)NC(=O)[C@H](C)NC(=O)CNC(=O)[C@@H]1CCCN1C(=O)[C@@H]1CCCN1C(=O)CNC(=O)[C@@H]1CCCN1C(=O)[C@@H]1CCCN1C(=O)CNC(=O)[C@@H]1CCCN1C(=O)[C@H](CCCNC(=N)N)NC(=O)CN)C(C)C)C(=O)NCC(=O)N[C@@H](Cc1ccccc1)C(=O)N1CCC[C@H]1C(=O)NCC(=O)N1CCC[C@H]1C(=O)N[C@@H](CCCCN)C(=O)NCC(=O)N[C@@H](C)C(=O)N[C@@H](C)C(=O)NCC(=O)N[C@@H](CCC(=O)O)C(=O)N1CCC[C@H]1C(=O)NCC(=O)N[C@@H](CCCCN)C(=O)N[C@@H](C)C(=O)NCC(=O)N[C@@H](CCC(=O)O)C(=O)N[C@@H](CCCNC(=N)N)C(=O)O` [compound 10] (H-GRPGPPGPPGARGQAGVMGFPGPKGAAGEPGKAGER-OH; N-terminus and C-terminus assumed), the 24h penetration amount stood at 2290.34 µg.

The compound `CC(C)C[C@H](NC(=O)CNC(=O)[C@@H](NC(=O)[C@@H]1CCCN1C(=O)CNC(=O)[C@@H]1CCCN1C(=O)[C@H](CCC(=O)O)NC(=O)CNC(=O)[C@H](CCCNC(=N)N)NC(=O)[C@H](C)NC(=O)CN)[C@@H](C)O)C(=O)N1CCC[C@H]1C(=O)NCC(=O)N1CCC[C@H]1C(=O)N1CCC[C@H]1C(=O)NCC(=O)N[C@@H](CCC(=O)O)C(=O)N[C@@H](CCCNC(=N)N)C(=O)NCC(=O)NCC(=O)N1CCC[C@H]1C(=O)NCC(=O)N[C@@H](CO)C(=O)N[C@@H](CCCNC(=N)N)C(=O)NCC(=O)N[C@@H](Cc1ccccc1)C(=O)N1CCC[C@H]1C(=O)NCC(=O)N[C@@H](C)C(=O)N[C@@H](CC(=O)O)C(=O)NCC(=O)N[C@H](C(=O)N[C@@H](C)C(=O)NCC(=O)N1CCC[C@H]1C(=O)N[C@@H](CCCCN)C(=O)O)C(C)C` [compound 8] (H-GARGEPGPTGLPGPPGERGGPGSRGFPGADGVAGPK-OH; N-terminus and C-terminus assumed) displayed a 24h penetration amount of 2013.46 µg.

For the compound `CC[C@H](C)[C@H](NC(=O)CN)C(=O)N[C@@H](C)C(=O)NCC(=O)N[C@@H](CCC(N)=O)C(=O)N[C@@H](CCCNC(=N)N)C(=O)NCC(=O)N[C@H](C(=O)N[C@H](C(=O)NCC(=O)N[C@@H](CC(C)C)C(=O)N1CCC[C@H]1C(=O)NCC(=O)N[C@@H](CCC(N)=O)C(=O)N[C@@H](CCCNC(=N)N)C(=O)NCC(=O)N[C@@H](CCC(=O)O)C(=O)N[C@@H](CCCNC(=N)N)C(=O)NCC(=O)N[C@@H](Cc1ccccc1)C(=O)N1CCC[C@H]1C(=O)NCC(=O)N[C@@H](CC(C)C)C(=O)N1CCC[C@H]1C(=O)NCC(=O)N1CCC[C@H]1C(=O)N[C@@H](CO)C(=O)NCC(=O)N[C@@H](CCC(=O)O)C(=O)N1CCC[C@H]1C(=O)NCC(=O)N[C@@H](CCCCN)C(=O)N[C@@H](CCC(N)=O)C(=O)NCC(=O)N1CCC[C@H]1C(=O)N[C@@H](CO)C(=O)O)C(C)C)C(C)C` [compound 20] (H-GIAGQRGVVGLPGQRGERGFPGLPGPSGEPGKQGPS-OH; N-terminus and C-terminus assumed), the 24h penetration amount turned out to be 2509.11 µg.
